Test system: 565232-114-T-J1-PDC complex spheroid viability
Assay: Anticancer human tumor 565232-114-T-J1-PDC patient-derived bladder carcinoma cell line growth inhibition [CLK]
Details: for IC50: curve of first compound; for viability, T/C: stronger effect = lower value
Method in brief: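 Patient-derived tumor cells grown as complex spheroids with HUVEC endothelial cells and mesenchymal stem cells, treated with drug combinations. Concentrations descend in half-log steps from near clinical Cmax, or from 10 microM if Cmax unknown.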

[1] = second compound 0.0316 µM, first compound 0.0316 µM
[2] = second compound 0.0316 µM, first compound 0.1 µM
[3] = second compound 0.0316 µM, first compound 0.316 µM
[4] = second compound 0.0316 µM, first compound 1 µM
[5] = second compound 0.0316 µM, first compound 3.16 µM
[6] = second compound 0.0316 µM, first compound 10 µM
[7] = second compound 0.1 µM, first compound 0.0316 µM
[8] = second compound 0.1 µM, first compound 0.1 µM
[9] = second compound 0.1 µM, first compound 0.316 µM
[10] = second compound 0.1 µM, first compound 1 µM
[11] = second compound 0.1 µM, first compound 3.16 µM
[12] = second compound 0.1 µM, first compound 10 µM
[13] = second compound 0.316 µM, first compound 0.0316 µM
[14] = second compound 0.316 µM, first compound 0.1 µM
[15] = second compound 0.316 µM, first compound 0.316 µM
[16] = second compound 0.316 µM, first compound 1 µM
[17] = second compound 0.316 µM, first compound 3.16 µM
[18] = second compound 0.316 µM, first compound 10 µM
[19] = second compound 1 µM, first compound 0.0316 µM
[20] = second compound 1 µM, first compound 0.1 µM
[21] = second compound 1 µM, first compound 0.316 µM
[22] = second compound 1 µM, first compound 1 µM
[23] = second compound 1 µM, first compound 3.16 µM
[24] = second compound 1 µM, first compound 10 µM
[25] = second compound 3.16 µM, first compound 0.0316 µM
[26] = second compound 3.16 µM, first compound 0.1 µM
[27] = second compound 3.16 µM, first compound 0.316 µM
[28] = second compound 3.16 µM, first compound 1 µM
[29] = second compound 3.16 µM, first compound 3.16 µM
[30] = second compound 3.16 µM, first compound 10 µM
[31] = second compound 10 µM, first compound 0.0316 µM
[32] = second compound 10 µM, first compound 0.1 µM
[33] = second compound 10 µM, first compound 0.316 µM
[34] = second compound 10 µM, first compound 1 µM
[35] = second compound 10 µM, first compound 3.16 µM
[36] = second compound 10 µM, first compound 10 µM
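Also: spheroids exposed to compounds for 7 days before readout.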
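For viability, T/C in this document: 100% = DMSO vehicle wells with luminescence normalized to vehicle control.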

CC(C)CC(NC(=O)C(Cc1ccccc1)NC(=O)c1cnccn1)B(O)O (stereo unspecified) + CN1CCN(c2cc(C(=O)Nc3cc4cc(-c5cnn(C)c5)ccc4cn3)ccn2)CC1
IC50 (second compound 0.0316 µM): 0.00573 µM
IC50 (second compound 0.1 µM): 0.00617 µM
IC50 (second compound 0.316 µM): < 0.000949 µM
IC50 (second compound 1 µM): < 0.000949 µM
IC50 (second compound 3.16 µM): < 0.000949 µM
IC50 (second compound 10 µM): < 0.000949 µM
viability, T/C (second compound 0.0316 µM, first compound 0.000949 µM): 120%
viability, T/C (second compound 0.0316 µM, first compound 0.003 µM): 109%
viability, T/C (second compound 0.0316 µM, first compound 0.00949 µM): 4.38%
viability, T/C (second compound 0.0316 µM, first compound 0.03 µM): 1.43%
viability, T/C (second compound 0.0316 µM, first compound 0.0949 µM): 1.54%
viability, T/C (second compound 0.0316 µM, first compound 0.3 µM): 1.27%
viability, T/C (second compound 0.1 µM, first compound 0.000949 µM): 129%
viability, T/C (second compound 0.1 µM, first compound 0.003 µM): 133%
viability, T/C (second compound 0.1 µM, first compound 0.00949 µM): 2.13%
viability, T/C (second compound 0.1 µM, first compound 0.03 µM): 1.8%
viability, T/C (second compound 0.1 µM, first compound 0.0949 µM): 1.71%
viability, T/C (second compound 0.1 µM, first compound 0.3 µM): 1.6%
viability, T/C (second compound 0.316 µM, first compound 0.000949 µM): 23.8%
viability, T/C (second compound 0.316 µM, first compound 0.003 µM): 25.9%
viability, T/C (second compound 0.316 µM, first compound 0.00949 µM): 3.56%
viability, T/C (second compound 0.316 µM, first compound 0.03 µM): 1.36%
viability, T/C (second compound 0.316 µM, first compound 0.0949 µM): 1.26%
viability, T/C (second compound 0.316 µM, first compound 0.3 µM): 0.65%
viability, T/C (second compound 1 µM, first compound 0.000949 µM): 0.22%
viability, T/C (second compound 1 µM, first compound 0.003 µM): 3%
viability, T/C (second compound 1 µM, first compound 0.00949 µM): 1.91%
viability, T/C (second compound 1 µM, first compound 0.03 µM): 0.18%
viability, T/C (second compound 1 µM, first compound 0.0949 µM): 2.19%
viability, T/C (second compound 1 µM, first compound 0.3 µM): 2.68%
viability, T/C (second compound 3.16 µM, first compound 0.000949 µM): 0.16%
viability, T/C (second compound 3.16 µM, first compound 0.003 µM): 1.18%
viability, T/C (second compound 3.16 µM, first compound 0.00949 µM): 0.21%
viability, T/C (second compound 3.16 µM, first compound 0.03 µM): 0.14%
viability, T/C (second compound 3.16 µM, first compound 0.0949 µM): 0.16%
viability, T/C (second compound 3.16 µM, first compound 0.3 µM): 1.81%
viability, T/C (second compound 10 µM, first compound 0.000949 µM): 0.1%
viability, T/C (second compound 10 µM, first compound 0.003 µM): 3.27%
viability, T/C (second compound 10 µM, first compound 0.00949 µM): 3.03%
viability, T/C (second compound 10 µM, first compound 0.03 µM): 0.17%
viability, T/C (second compound 10 µM, first compound 0.0949 µM): 1.45%
viability, T/C (second compound 10 µM, first compound 0.3 µM): 0.23%

CC1(C)CCC(CN2CCN(c3ccc(C(=O)NS(=O)(=O)c4ccc(NCC5CCOCC5)c([N+](=O)[O-])c4)c(Oc4cnc5[nH]ccc5c4)c3)CC2)=C(c2ccc(Cl)cc2)C1 + CN1CCN(c2cc(C(=O)Nc3cc4cc(-c5cnn(C)c5)ccc4cn3)ccn2)CC1
IC50 (second compound 0.0316 µM): 9.1 µM
IC50 (second compound 0.1 µM): 8.01 µM
IC50 (second compound 0.316 µM): < 0.0316 µM
IC50 (second compound 1 µM): < 0.0316 µM
IC50 (second compound 3.16 µM): < 0.0316 µM
IC50 (second compound 10 µM): < 0.0316 µM
viability, T/C [1]: 104%
viability, T/C [2]: 89%
viability, T/C [3]: 98.6%
viability, T/C [4]: 95.9%
viability, T/C [5]: 79.5%
viability, T/C [6]: 47.4%
viability, T/C [7]: 88.2%
viability, T/C [8]: 79.3%
viability, T/C [9]: 95.1%
viability, T/C [10]: 119%
viability, T/C [11]: 82.2%
viability, T/C [12]: 42.3%
viability, T/C [13]: 13.7%
viability, T/C [14]: 18.3%
viability, T/C [15]: 18.5%
viability, T/C [16]: 17.6%
viability, T/C [17]: 22.8%
viability, T/C [18]: 11.4%
viability, T/C [19]: 1.1%
viability, T/C [20]: 0.27%
viability, T/C [21]: 0.22%
viability, T/C [22]: 0.2%
viability, T/C [23]: 0.21%
viability, T/C [24]: 0.31%
viability, T/C [25]: 0.35%
viability, T/C [26]: 2.16%
viability, T/C [27]: 1.93%
viability, T/C [28]: 0.23%
viability, T/C [29]: 1.8%
viability, T/C [30]: 1.49%
viability, T/C [31]: 0.16%
viability, T/C [32]: 1.55%
viability, T/C [33]: 1.55%
viability, T/C [34]: 0.15%
viability, T/C [35]: 0.15%
viability, T/C [36]: 0.8%

CC1COCCN1c1cc(C2(S(C)(=N)=O)CC2)nc(-c2ccnc3[nH]ccc23)n1 (stereo unspecified) + CN1CCN(c2cc(C(=O)Nc3cc4cc(-c5cnn(C)c5)ccc4cn3)ccn2)CC1
IC50 (second compound 0.0316 µM): > 10 µM
IC50 (second compound 0.1 µM): 6.51 µM
IC50 (second compound 0.316 µM): < 0.0316 µM
IC50 (second compound 1 µM): < 0.0316 µM
IC50 (second compound 3.16 µM): < 0.0316 µM
IC50 (second compound 10 µM): < 0.0316 µM
viability, T/C [1]: 89.7%
viability, T/C [2]: 93.5%
viability, T/C [3]: 98.5%
viability, T/C [4]: 79.7%
viability, T/C [5]: 101%
viability, T/C [6]: 50.7%
viability, T/C [7]: 95.7%
viability, T/C [8]: 91.2%
viability, T/C [9]: 80.7%
viability, T/C [10]: 82.6%
viability, T/C [11]: 98.8%
viability, T/C [12]: 26.1%
viability, T/C [13]: 16.3%
viability, T/C [14]: 18.7%
viability, T/C [15]: 14.9%
viability, T/C [16]: 9.37%
viability, T/C [17]: 3.94%
viability, T/C [18]: 3.31%
viability, T/C [19]: 0.17%
viability, T/C [20]: 0.5%
viability, T/C [21]: 0.18%
viability, T/C [22]: 0.19%
viability, T/C [23]: 1.38%
viability, T/C [24]: 1.91%
viability, T/C [25]: 0.25%
viability, T/C [26]: 0.22%
viability, T/C [27]: 3.08%
viability, T/C [28]: 0.81%
viability, T/C [29]: 0.72%
viability, T/C [30]: 2.22%
viability, T/C [31]: 1.75%
viability, T/C [32]: 2.46%
viability, T/C [33]: 1.22%
viability, T/C [34]: 0.21%
viability, T/C [35]: 0.21%
viability, T/C [36]: 0.53%

From PubChem BioAssay AID2060612 (Molecular Pharmacology Branch, DTP, NCI, 2025)
